Measured values published in patent US20010041670A1, “Thrombospondin-binding region of histidine-rich glycoprotein and method of use” (priority 1999, published 2001).
Each block holds one substance with its values, some of them ahead of it.

Experiments:
binding of HRGP to TSP-1 = biological target: T1, binding of HRGP to TSP-1 (Homo sapiens, UniProt P04196); assay: ELISA of HRGP binding to immobilized TSP-1 in presence of peptides; settings: for inhibition of binding of HRGP to immobilized TSP-1: peptide 50 μM
T1 construct: from tissue; host or cells: HRGP from human plasma; TSP-1 from human platelet releasate
T1 sequence (P04196 19-525): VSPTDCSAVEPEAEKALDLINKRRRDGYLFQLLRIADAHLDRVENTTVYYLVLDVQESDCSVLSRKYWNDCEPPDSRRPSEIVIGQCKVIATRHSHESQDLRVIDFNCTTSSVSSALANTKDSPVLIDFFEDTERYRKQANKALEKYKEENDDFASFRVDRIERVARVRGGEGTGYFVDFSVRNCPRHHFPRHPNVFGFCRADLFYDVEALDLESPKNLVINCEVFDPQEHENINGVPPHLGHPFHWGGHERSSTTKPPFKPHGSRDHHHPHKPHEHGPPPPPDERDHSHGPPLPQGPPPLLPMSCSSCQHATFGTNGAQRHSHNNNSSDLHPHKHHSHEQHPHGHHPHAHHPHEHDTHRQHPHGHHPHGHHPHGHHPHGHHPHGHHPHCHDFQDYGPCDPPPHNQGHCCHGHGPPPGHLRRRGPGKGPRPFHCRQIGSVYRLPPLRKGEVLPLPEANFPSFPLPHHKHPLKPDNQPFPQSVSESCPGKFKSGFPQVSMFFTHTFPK
Procedure: (§1) Enzyme-linked immunosorbent assays (ELISA) were performed as described (6). Briefly, TSP-1 (4μg/ml) in coating buffer (0.5M sodium carbonate, pH 9.6) was applied to microtiter plates (Becton Dickinson, Lincoln Park, N.J., USA) for 3 hours at 37° C. After washing with wash buffer (0.05% Tween in 20 mM Tris, 150mM NaCl, pH 7.5), and blocking for 1 hour at 37° C. with 1% BSA in Tris-Tween, HRGP in varying amounts in the presence and absence of peptide was added for 18h at 4° C. After washing, alkaline phosphatase-conjugated anti-HRGP or nonimmune rabbit Fab'2 was added for 3h at 37° C., after which p-nitrophenyl phosphate substrate was added and optical density (OD) at 405 nm was read in a microplate reader (Molecular Devices, Menlo Park, Calif., USA).
(§2) HRGP or plasminogen binding to TSP-1 immobilized on plastic wells was measured by enzyme-linked immunosorbent assay (ELISA) as described above, using an alkaline phosphatase-conjugated anti-HRGP antibody and p-nitrophenyl phosphate substrate.
(§3) As an additional control, the binding of plasminogen to TSP-1 was measured.
Varying amounts of HRGP were added alone or in the presence of increasing concentrations of the peptide CSVTCG to TSP-1 coated wells. Binding was measured by ELISA as described above.

[1] = tested on: Human dermal microvascular EC (HMVEC); assay: Tube formation assay on Matrigel; format: cell-based; settings: Matrigel
Procedure: Tube Formation Assay. Early passage (P2 or P3) HMVEC in 0.2% MVGS were grown on 150 μl of Matrigel (Becton Dickinson, Bedford, Mass., USA) at 3×10^4 cells per well of 48-well plates. Reagents were added and cells were incubated at 5% CO2, 37° C. for 24 hours then photographed. Images were scanned and number of branched structures was counted using Scion Image software (Frederick, Md., USA).
HRGP inhibits the anti-angiogenic effect of TSP-1 in vitro. Microvascular EC were grown on Matrigel under low serum concentrations (0.2%) in the presence of bFGF (2 ng/ml), conditions which are known to induce tube formation. […] The anti-angiogenic activity of TSP-1 was abolished by the addition of HRGP (15 nM), which restored the ability of the EC to form tubular structures. (c).

wild type C57BL/6 mice = assay: In vivo corneal angiogenesis assay, wild type mice
Procedure: (§4) FIG. 3. HRGP abrogates the effect of endogenous TSP in the corneal angiogenesis assay. Pellets containing bFGF at various doses with and without HRGP (50 ng) were implanted into the corneas of wild type C57BL/6 (closed symbols) or CD 36 null mice (open symbols), and area of neovascularization was measured after five days. HRGP (--●--) augmented the dose-dependent effect of bFGF (—▪—) in the wild type mice (p=0.0004 by ANOVA). In CD36 null mice, there was an enhanced dose response to bFGF (—□—) (p=0.01), but no effect seen with the addition of HRGP (--◯--). Results represent mean±SE of>6 replicates.
(§5) In vivo corneal angiogenesis assays. Pellets composed of hydron (Hydro Med Sciences, Cranbury, N.J.) and sucralfate (Teva Pharmaceuticals, North Wales, Pa.) were mixed with proteins or growth factors, and were prepared and implanted into the comeas of C57B1/6 mice as described (38). After 5 days, eyes were viewed under a dissecting microscope and photographed with a Sony DKC-1000 digital camera. The area of neovascularization was calculated by measuring vessel length from limbus towards the pellet and number of clock hours of vascularization as described (39, 40). Studies were approved by the Institutional Animal Use Committee.
In a second type of in vivo experiment, hydron/sucralfate pellets containing bFGF, TSP-1, and/or HRGP were implanted in the corneas of C57B1/6 mice. […]

C57B1/6 mice = assay: In vivo subcutaneous Matrigel plug assay
Procedure: In vivo subcutaneous Matrigel plug assays were performed as described (23). Briefly, 500 μl of Matrigel mixed with proteins or growth factors was injected subcutaneously near the abdominal midline of C57B1/6 mice. Gels were removed after 10 days, fixed in 1% paraformaldehyde, embedded in paraffin, sectioned, and stained with hematoxylin and eosin. Immunohistochemistry was performed on unstained sections using an anti-human von Willebrand factor (vWF) IgG (Dako, Glostrup, Denmark) or isotype-matched control (Sigma) and a biotin-streptavidin-peroxidase antibody and development system (Vector Laboratories, Burlingame, Calif.) as described (24) and counterstained with Mayer's hematoxylin (ImmunoGenex, San Ramon, Calif., USA). After scanning, the degree of angiogenesis was determined by counts of vWF-positive blood vessels using Scion Image. For breast tissue, frozen sections of freshly obtained human breast carcinoma were incubated with rabbit antibody to HRGP or CSVTCG or murine monoclonal antibody to TSP, or isotype-matched controls (Sigma), and developed as above. These studies were approved by the Institutional Animal Use Committee.
Matrigel mixed was injected subcutaneously into the midline of mice and resulting plugs were harvested after 10 days, fixed, and paraffin embedded, sectioned, stained with. hematoxylin and eosin, and photographed at 200× magnification. […]

CD36 null mice = assay: In vivo corneal angiogenesis assay, CD36 null mice
Procedure: as §4, §5
In fact, the dose response curve of bFGF in wild type mice in the presence of HRGP was similar to that seen with bFGF alone in the CD36 null mice. […]

[2] = biological target: T2, 125I-TSP-1 binding to HRGP (Homo sapiens, UniProt P07996); assay: Solid phase binding assay, competition with CD36 fusion proteins; settings: increasing concentrations of fusion protein
T2 construct: TSP-1 was purified from human platelet releasate; from tissue; host or cells: TSP-1 from human platelet releasate; HRGP from human plasma
T2 sequence (P07996 19-1170): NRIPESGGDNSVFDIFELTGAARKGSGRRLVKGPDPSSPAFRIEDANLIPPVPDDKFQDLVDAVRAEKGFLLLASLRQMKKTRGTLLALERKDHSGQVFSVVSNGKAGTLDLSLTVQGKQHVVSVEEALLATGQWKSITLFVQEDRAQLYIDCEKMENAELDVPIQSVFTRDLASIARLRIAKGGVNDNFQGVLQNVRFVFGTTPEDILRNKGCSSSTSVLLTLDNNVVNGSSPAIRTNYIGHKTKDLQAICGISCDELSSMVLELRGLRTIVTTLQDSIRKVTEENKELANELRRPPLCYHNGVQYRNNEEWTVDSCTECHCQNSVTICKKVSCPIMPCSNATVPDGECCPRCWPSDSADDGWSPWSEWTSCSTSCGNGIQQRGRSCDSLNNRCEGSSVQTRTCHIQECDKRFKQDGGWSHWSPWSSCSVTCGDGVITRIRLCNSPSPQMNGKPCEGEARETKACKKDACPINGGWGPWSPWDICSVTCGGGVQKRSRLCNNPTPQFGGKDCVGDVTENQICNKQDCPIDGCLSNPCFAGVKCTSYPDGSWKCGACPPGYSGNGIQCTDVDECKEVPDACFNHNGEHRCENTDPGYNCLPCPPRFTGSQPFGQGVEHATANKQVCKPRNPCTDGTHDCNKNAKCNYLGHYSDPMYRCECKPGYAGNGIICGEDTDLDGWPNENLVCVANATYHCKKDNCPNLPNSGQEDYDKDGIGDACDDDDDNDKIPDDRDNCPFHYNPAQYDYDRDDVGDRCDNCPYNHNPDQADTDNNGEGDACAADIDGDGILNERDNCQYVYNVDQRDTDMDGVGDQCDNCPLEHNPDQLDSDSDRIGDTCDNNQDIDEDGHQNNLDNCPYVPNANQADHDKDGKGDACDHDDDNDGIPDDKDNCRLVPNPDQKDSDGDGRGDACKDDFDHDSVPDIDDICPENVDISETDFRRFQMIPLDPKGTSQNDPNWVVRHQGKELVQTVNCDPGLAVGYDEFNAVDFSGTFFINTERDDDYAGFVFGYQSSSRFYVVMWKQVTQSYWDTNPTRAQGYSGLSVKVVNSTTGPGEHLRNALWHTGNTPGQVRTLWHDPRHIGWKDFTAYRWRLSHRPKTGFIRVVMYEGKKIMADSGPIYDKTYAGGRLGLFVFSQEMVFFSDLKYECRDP
Procedure: Solid phase binding assays were performed as described (18). Briefly, HRGP in carbonate buffer was immobilized on 96-well strips (Immulon-4 Remove-a-well, Dynatech Laboratories Inc., Burlington, Mass., USA) overnight at 4° C. After blocking with 1% BSA, ^125I-TSP-1 was incubated in the presence of varying concentrations of CD36-FP in triplicate, and bound radioactivity was quantified on a gamma counter. Non-specific binding was determined by carrying out binding in the presence of excess unlabeled ligand.
TSP-1 binding to HRGP: competition with CD36.

[3] = biological target: T3, binding of radiolabelled HRGP to TSP-1 (Homo sapiens, UniProt P04196); assay: Ligand blot of radiolabelled HRGP on TSP-1; settings: autoradiography; CSVTCG peptide at 50 μM
T3 construct: TSP-1 was purified from human platelet releasate; from tissue; host or cells: HRGP from human plasma; TSP-1 from human platelet releasate
T3 sequence (P04196 19-525): T1 sequence (P04196 19-525)
Procedure: Ligand Blot: TSP-1 was resolved on an SDS-polyacrylamide gel and electrophoretically blotted onto a polyvinylidene difluoride (PVDF) membrane. The membrane was blocked with 150 mM NaCl, 20 mM Tris (TBS) containing 5% BSA. Following three washes with TBS, washes the membranes were cut into strips and incubated with ligand(s) diluted in TBS, 0.1% BSA for 1 hour, washed, and developed by autoradiography.
Ligand blots show binding of radiolabelled HRGP to TSP-1 that had been subjected to SDS-PAGE and transferred to nitrocellulose, then developed by autoradiography.

[4] = biological target: binding of plasminogen to TSP-1 (Homo sapiens, UniProt P00747); settings: ELISA; control interaction
binding of plasminogen to TSP-1, sequence (P00747 20-810 limits assumed): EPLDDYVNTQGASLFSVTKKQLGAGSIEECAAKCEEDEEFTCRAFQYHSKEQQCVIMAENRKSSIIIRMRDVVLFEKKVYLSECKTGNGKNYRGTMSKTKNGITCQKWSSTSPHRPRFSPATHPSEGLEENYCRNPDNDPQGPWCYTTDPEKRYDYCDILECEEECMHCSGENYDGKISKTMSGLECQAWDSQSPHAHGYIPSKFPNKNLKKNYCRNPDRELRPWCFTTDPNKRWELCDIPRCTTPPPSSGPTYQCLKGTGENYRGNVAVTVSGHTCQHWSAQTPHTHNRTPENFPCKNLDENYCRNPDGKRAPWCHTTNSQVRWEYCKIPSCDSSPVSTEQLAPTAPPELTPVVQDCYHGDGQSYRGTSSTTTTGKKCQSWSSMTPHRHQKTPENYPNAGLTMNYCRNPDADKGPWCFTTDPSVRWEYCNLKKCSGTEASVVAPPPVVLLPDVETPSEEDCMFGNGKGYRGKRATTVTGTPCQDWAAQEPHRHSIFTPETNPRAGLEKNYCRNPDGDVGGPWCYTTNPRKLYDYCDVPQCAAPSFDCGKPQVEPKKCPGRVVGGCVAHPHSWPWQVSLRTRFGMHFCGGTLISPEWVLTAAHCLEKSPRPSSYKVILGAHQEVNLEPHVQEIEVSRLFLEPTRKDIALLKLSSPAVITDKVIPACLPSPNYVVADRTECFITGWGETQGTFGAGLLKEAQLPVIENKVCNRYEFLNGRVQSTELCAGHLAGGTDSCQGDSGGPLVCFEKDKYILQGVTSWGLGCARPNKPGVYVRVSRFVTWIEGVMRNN
Procedure: as §1, §2, §3

[5] = tested on: Human dermal microvascular EC (HMVEC); assay: Endothelial cell chemotaxis assay (modified Boyden chamber); format: cell-based; settings: TSP-1 2 nM; 3 separate experiments
Procedure: Endothelial Cell (EC) chemotaxis assays were performed as described using a modified Boyden chamber with 8 μm gelatin-coated membranes (22). Briefly, confluent flasks of HMVEC were grown in 0.1% MVGS overnight and plated at 3×10^4 cells per well on a gelatinized porous membrane (Osmonics, Minnetonka, Minn., USA). Reagents were added to wells and cells were allowed to migrate at 5% CO2, 37° C. for 4 hours. Membranes were stained and the number of cells migrating was counted. Results were expressed as the percentage of maximum cells migrating towards bFGF (38-113 cells/10 high power fields) minus the number of cells migrating in the absence of bFGF (4-13cells/10 hpf).
HRGP inhibits the anti-chemotactic effect of TSP-1. Because the type I repeat also mediates the interaction of TSP-1 with HRGP, we studied the effect of HRGP on angiogenesis. EC migration towards bFGF was measured using a modified Boyden chamber with an 8 μm gelatin-coated membrane in the presence and absence of TSP-1 (2 nM) and increasing concentrations of HRGP (0-100 nM). Data from 3 separate experiments are expressed as a percentage of migration in the presence of bFGF alone. We measured migration of CD36-expressing microvascular EC towards bFGF. The addition of TSP-1 inhibited bFGF-induced migration of EC (approx. 30%±3% of control 100% value without added TSP-1). […]

- inhibition of binding of HRGP to immobilized TSP-1 (binding of HRGP to TSP-1): not and had no effect
Substance: TVSGCC: scrambled peptide control

Substance: bFGF: Recombinant human basic fibroblast growth factor
- induction of tube formation ([1]; agent alone, low serum): induced tube formation
- Area of Neovascularization (mm^2) ± SE (wild type C57BL/6 mice; Wild type mouse, corneal pellet, 5 days): 2.35 ± 0.10 mm^2
- eyes with vigorous outgrowth of blood vessels (angiogenesis) (wild type C57BL/6 mice; pellets: bFGF 50 ng, TSP-1 200 ng, HRGP 100 ng, after 5 days): 13/13
- angiogenesis in Matrigel plug (histology) (C57B1/6 mice; plugs harvested after 10 days, representative images of 4 experiments): stimulated angiogenesis
- Area of Neovascularization (mm^2) ± SE (CD36 null mice; CD36 −/− mouse, corneal pellet, 5 days): 2.10 ± 0.14 mm^2

- inhibition of 125I-TSP-1 binding to immobilized HRGP [2]: had no effect
Substance: GST: glutathione-S-transferase alone, control

Substance: cysteine-serine-valine-threonine-cysteine-glycine [CSVTCG]
- binding of radiolabelled HRGP to TSP-1 resolved on SDS-PAGE and blotted [3]: completely abolished
- peptide concentration at which inhibition of HRGP binding to TSP-1 reached maximum (binding of HRGP to TSP-1; concentration-dependent inhibition): 50 µM
- inhibition of binding of HRGP to immobilized TSP-1 (binding of HRGP to TSP-1): inhibited
- inhibition of binding of plasminogen to TSP-1 [4]: not inhibited

- inhibition of 125I-TSP-1 binding to immobilized HRGP [2]: inhibited
Substance: CD36 FP93-120: CD36-glutathione-S-transferase (GST) fusion protein shown to bind TSP-1 (YRVRFLAKENVTQDAEDNTVSFLQPNGA; left off: a dimerising Fc or GST)

Substance: TSP-1: 450 kDa homotrimeric adhesive glycoprotein purified from human platelet releasate; inhibitor of angiogenesis
- effect on bFGF-induced tube formation by EC ([1]; TSP-1 2 nM, bFGF 2 ng/ml, 0.2% serum): inhibited
- EC migration towards bFGF, percentage of control without added TSP-1 [5]: approx. 30%±3%
- blood vessels/mm^2, % of that seen with bFGF (C57B1/6 mice; TSP-1 added to bFGF in Matrigel, 10 days): 14±8%
- inhibition of bFGF-induced angiogenesis (CD36 null mice; CD36 null mice): did not inhibit

- inhibition of binding of HRGP to immobilized TSP-1 (binding of HRGP to TSP-1): not and had no effect
Substance: RGDS: control TSP-1 peptide
